ChEMBL document CHEMBL1145478, “Neisseria gonorrhoeae isolates with reduced susceptibility to cefixime and ceftriaxone: association with genetic polymorphisms in penA, mtrR, porB1b, and ponA” (2007)
Values after ≈ are worked out from the molar mass of the structure shown.

Columns and labels:
Assay type in all cases: functional
Neisseria gonorrhoeae [1] = assay: Antimicrobial activity against Neisseria gonorrhoeae 91 isolate
Neisseria gonorrhoeae [2] = assay: Antimicrobial activity against Neisseria gonorrhoeae 188 isolate
Neisseria gonorrhoeae [3] = assay: Antimicrobial activity against Neisseria gonorrhoeae 273 isolate
Neisseria gonorrhoeae [4] = assay: Antimicrobial activity against Neisseria gonorrhoeae 35 isolate
Neisseria gonorrhoeae [5] = assay: Antimicrobial activity against Neisseria gonorrhoeae 196 isolate
Neisseria gonorrhoeae [6] = assay: Antimicrobial activity against Neisseria gonorrhoeae 82 isolate
Neisseria gonorrhoeae [7] = assay: Antimicrobial activity against Neisseria gonorrhoeae 201 isolate
Neisseria gonorrhoeae [8] = assay: Antimicrobial activity against Neisseria gonorrhoeae 64 isolate
Neisseria gonorrhoeae [9] = assay: Antimicrobial activity against Neisseria gonorrhoeae 253 isolate
Neisseria gonorrhoeae [10] = assay: Antimicrobial activity against Neisseria gonorrhoeae 90 isolate
Neisseria gonorrhoeae [11] = assay: Antimicrobial activity against Neisseria gonorrhoeae 128 isolate
Neisseria gonorrhoeae [12] = assay: Antimicrobial activity against Neisseria gonorrhoeae 67 isolate
Neisseria gonorrhoeae [13] = assay: Antimicrobial activity against Neisseria gonorrhoeae 119 isolate
Neisseria gonorrhoeae [14] = assay: Antimicrobial activity against Neisseria gonorrhoeae 59 isolate
Neisseria gonorrhoeae [15] = assay: Antimicrobial activity against Neisseria gonorrhoeae 30 isolate
Neisseria gonorrhoeae [16] = assay: Antimicrobial activity against Neisseria gonorrhoeae 158 isolate
Neisseria gonorrhoeae [17] = assay: Antimicrobial activity against Neisseria gonorrhoeae 65 isolate

Row | SMILES | MIC (Neisseria gonorrhoeae [1]) [µg/mL] | MIC (Neisseria gonorrhoeae [2]) [µg/mL] | MIC (Neisseria gonorrhoeae [3]) [µg/mL] | MIC (Neisseria gonorrhoeae [4]) [µg/mL] | MIC (Neisseria gonorrhoeae [5]) [µg/mL] | MIC (Neisseria gonorrhoeae [6]) [µg/mL] | MIC (Neisseria gonorrhoeae [7]) [µg/mL] | MIC (Neisseria gonorrhoeae [8]) [µg/mL] | MIC (Neisseria gonorrhoeae [9]) [µg/mL] | MIC (Neisseria gonorrhoeae [10]) [µg/mL] | MIC (Neisseria gonorrhoeae [11]) [µg/mL] | MIC (Neisseria gonorrhoeae [12]) [µg/mL] | MIC (Neisseria gonorrhoeae [13]) [µg/mL] | MIC (Neisseria gonorrhoeae [14]) [µg/mL] | MIC (Neisseria gonorrhoeae [15]) [µg/mL] | MIC (Neisseria gonorrhoeae [16]) [µg/mL] | MIC (Neisseria gonorrhoeae [17]) [µg/mL]
1 | C=CC1=C(C(=O)O)N2C(=O)[C@@H](NC(=O)/C(=N\OCC(=O)O)c3csc(N)n3)[C@H]2SC1 [CEFIXIME] | 0.38 (≈ 0.838 µM) | 0.064 (≈ 0.141 µM) | 0.064 (≈ 0.141 µM) | 0.38 (≈ 0.838 µM) | 0.094 (≈ 0.207 µM) | 0.38 (≈ 0.838 µM) | 0.064 (≈ 0.141 µM) | 0.25 (≈ 0.551 µM) | 0.064 (≈ 0.141 µM) | 0.38 (≈ 0.838 µM) | < 0.016 | 0.25 (≈ 0.551 µM) | < 0.016 | 0.25 (≈ 0.551 µM) | 0.25 (≈ 0.551 µM) | 0.047 (≈ 0.104 µM) | 0.25 (≈ 0.551 µM)
2 | CO/N=C(\C(=O)N[C@@H]1C(=O)N2C(C(=O)O)=C(CSc3nc(=O)c(O)nn3C)CS[C@H]12)c1csc(N)n1 [CEFTRIAXONE] | 0.125 (≈ 0.225 µM) | 0.064 (≈ 0.115 µM) | 0.094 (≈ 0.169 µM) | 0.094 (≈ 0.169 µM) | 0.094 (≈ 0.169 µM) | 0.125 (≈ 0.225 µM) | 0.064 (≈ 0.115 µM) | 0.094 (≈ 0.169 µM) | 0.064 (≈ 0.115 µM) | 0.125 (≈ 0.225 µM) | < 0.002 | 0.094 (≈ 0.169 µM) | < 0.002 | 0.094 (≈ 0.169 µM) | 0.094 (≈ 0.169 µM) | 0.094 (≈ 0.169 µM) | 0.094 (≈ 0.169 µM)
3 | CC1(C)S[C@@H]2[C@H](NC(=O)Cc3ccccc3)C(=O)N2[C@H]1C(=O)O [PENICILLIN G] | 6 (≈ 17.9 µM) | 1 (≈ 2.99 µM) | 1.5 (≈ 4.49 µM) | 2 (≈ 5.98 µM) | 1 (≈ 2.99 µM) | 6 (≈ 17.9 µM) | 1 (≈ 2.99 µM) | 2 (≈ 5.98 µM) | 1.5 (≈ 4.49 µM) | 6 (≈ 17.9 µM) | 0.008 (≈ 0.0239 µM) | 2 (≈ 5.98 µM) | 0.012 (≈ 0.0359 µM) | 6 (≈ 17.9 µM) | 3 (≈ 8.97 µM) | 1.5 (≈ 4.49 µM) | 1.5 (≈ 4.49 µM)
